Source: patent EP3046573B1, “AMYLIN ANALOGUES” (Zealand Pharma A/S, priority 2013, dated 2015)
Like-named read-outs stand apart in the source and are kept apart here. Numbered stars: 1 amine (or outer) side, 2 acyl side, 3 side chain; on linkers, the order of the positions; unused ones are H or OH. Bridge positions count the residues as written; N and C are the ends. Square brackets hold non-standard residues; d marks the D form. Peptide text beside a SMILES is read from it. * marks the point of attachment. C20 diacid = O=C(O)CCCCCCCCCCCCCCCCCCC(=O)*; γGlu = O=C(O)[C@H](CCC(=O)[*:2])N[*:1]; NMeI = CC[C@H](C)[C@H](NC)C(=O)O; Sar = CNCC(=O)O

Legend:
[1] = target: T1, human amylin receptor 3 (hAMYR3) consisting of hCTR2 co-expressed with human Receptor Activity Modifying Protein 3 (hRAMP3) (Homo sapiens, UniProt O60896+P30988); experiment: hAMYR3 assay: induction of cAMP (AlphaScreen cAMP Assay kit) in COS7 cells expressing hAMYR3; type: cell-based
T1 construct: expressed in transfected cells
T1 sequence (P30988 25-474): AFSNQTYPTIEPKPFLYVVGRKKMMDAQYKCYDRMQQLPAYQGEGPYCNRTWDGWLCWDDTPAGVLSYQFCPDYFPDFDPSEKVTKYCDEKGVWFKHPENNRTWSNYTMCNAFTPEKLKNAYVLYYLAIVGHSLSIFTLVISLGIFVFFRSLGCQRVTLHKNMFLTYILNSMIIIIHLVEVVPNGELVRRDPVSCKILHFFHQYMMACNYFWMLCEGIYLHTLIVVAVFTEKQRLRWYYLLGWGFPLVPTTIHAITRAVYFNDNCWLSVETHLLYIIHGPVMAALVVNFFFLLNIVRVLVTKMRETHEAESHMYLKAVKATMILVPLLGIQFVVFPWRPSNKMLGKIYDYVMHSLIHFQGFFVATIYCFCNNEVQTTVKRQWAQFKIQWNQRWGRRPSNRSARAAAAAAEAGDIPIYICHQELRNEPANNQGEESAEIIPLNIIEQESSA
T1 sequence (O60896 24-148 partner): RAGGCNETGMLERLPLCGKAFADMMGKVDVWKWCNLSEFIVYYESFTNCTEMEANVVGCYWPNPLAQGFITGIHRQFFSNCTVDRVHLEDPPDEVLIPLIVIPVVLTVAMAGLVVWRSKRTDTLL
Method in brief: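 cAMP accumulation read by AlphaScreen in lysates of RAMP-naive COS7 cells stably transfected with hCTR2 plus hRAMP3. Cells exposed to peptide dilutions for 15 min, 37° C, with 100 µM IBMX; 4PL fitting gave EC50 and efficacy relative to pramlintide.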

[2] = Solubility assessment (turbidity absorbance at 325 nm); type: physicochemical; details: stock 2 mg/ml diluted 1:1, ambient temperature (typically 25°C), n=1; for Solubility, Acetate buffer pH 4: 100 mM acetate buffer pH 4.0; for Solubility, Acetate buffer pH 5: 100 mM acetate buffer pH 5.0; for Solubility, Histidine buffer pH 6: 100 mM histidine buffer pH 6.0; for Solubility, Histidine buffer pH 7: 100 mM histidine buffer pH 7.0; for Solubility, Phosphate buffer pH 6: 100 mM phosphate buffer pH 6.0; for Solubility, Phosphate buffer pH 7: 100 mM phosphate buffer pH 7.0; for Solubility, Phosphate buffer pH 7.5: 100 mM phosphate buffer pH7.5
Method in brief: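 Read-out: turbidity as absorbance at 325 nm (280 nm also read), single samples, ambient temperature of typically 25°C. Samples were a 1:1 mix of 2 mg/ml stock (water, pH 2.5) with 100 mM acetate, histidine or phosphate buffers spanning pH 4.0–7.5. Cut-off: A325 ≤ 0.02 indicates ≥ 1 mg/ml.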

[3] = target: T2, human calcitonin receptor (hCTR2) (Homo sapiens, UniProt P30988); experiment: hCTR2 assay: induction of cAMP (AlphaScreen cAMP Assay kit) in COS7 cells expressing hCTR2; type: cell-based
T2 construct: expressed in transfected cells
T2 sequence (P30988 25-474): T1 sequence (P30988 25-474)
Method in brief: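 cAMP read-out by AlphaScreen after cell lysis; EC50 and % efficacy vs pramlintide from 4-parameter logistic fitting. Agonist stimulation: hCTR2-COS7 stable cells, 15 min, 37° C, 100 µM IBMX, 0.1% casein, Tyrode/HEPES pH 7.4.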

[4] = cAMP induction in COS7 cells expressing hCTR2, average of a minimum of 3 determinations, read-out: hCTR2 EC50

SMILES	EC50 ([1]; cAMP induction in COS7 cells expressing hAMYR3, average of a minimum of 3 determinations, read-out: hAMY R3 EC50) [nM]	Solubility, Acetate buffer pH 4 [2]	Solubility, Acetate buffer pH 5 [2]	Solubility, Histidine buffer pH 6 [2]	Solubility, Histidine buffer pH 7 [2]	Solubility, Phosphate buffer pH 6 [2]	Solubility, Phosphate buffer pH 7 [2]	Solubility, Phosphate buffer pH 7.5 [2]	EC50 [3, 4] [nM]	EC50 [1] [nM]	EC50 [3] [nM]
CC[C@H](C)[C@@H](C(=O)N[C@@H](CC(C)C)C(=O)N[C@@H](CO)C(=O)N[C@@H](CO)C(=O)N[C@H](C(=O)N[C@@H](CCC(=O)O)C(=O)N[C@H](C(=O)NCC(=O)N[C@@H](CO)C(=O)N[C@@H](CCC(=O)O)C(=O)N[C@H](C(=O)N1CCC[C@H]1C(N)=O)[C@@H](C)O)C(C)C)[C@@H](C)O)N(C)C(=O)[C@H](C)NC(=O)CN(C)C(=O)[C@H](Cc1ccccc1)NC(=O)[C@H](CO)NC(=O)[C@H](CO)NC(=O)[C@H](CO)NC(=O)[C@H](CO)NC(=O)[C@H](CCCNC(=N)N)NC(=O)[C@H](Cc1c[nH]cn1)NC(=O)[C@H](CC(C)C)NC(=O)[C@H](Cc1ccccc1)NC(=O)[C@H](CCC(=O)O)NC(=O)[C@H](C)NC(=O)[C@H](CC(C)C)NC(=O)[C@H](CCCNC(=N)N)NC(=O)[C@@H](NC(=O)[C@@H](NC(=O)[C@H](C)NC(=O)[C@@H]1CSSC[C@H](NC(=O)[C@H](CCCNC(=N)N)NC(=O)CC[C@H](NC(=O)CCCCCCCCCCCCCCCCCCC(=O)O)C(=O)O)C(=O)N[C@@H](CC(N)=O)C(=O)N[C@@H]([C@@H](C)O)C(=O)N[C@@H](C)C(=O)N[C@@H]([C@@H](C)O)C(=O)N1)[C@@H](C)O)[C@@H](C)O [Compound 123, [19CD]-isoGlu-RC()NTATC()ATTRLAEFLHRSSSSF-Gly(Me)-A-Ile(Me)-LSSTEVGSETP-NH2] ({C20 diacid-γGlu}-RCNTATCATTRLAEFLHRSSSSF[Sar]A[NMeI]LSSTEVGSETP-NH2; disulfide 2-7)	0.29	SS (SS indicates solubility ≥ 1mg/ml)	SS (SS indicates solubility ≥ 1mg/ml)	SS (SS indicates solubility ≥ 1mg/ml)	SS (SS indicates solubility ≥ 1mg/ml)	SS (SS indicates solubility ≥ 1mg/ml)	SS (SS indicates solubility ≥ 1mg/ml)	SS (SS indicates solubility ≥ 1mg/ml)	0.28	–	–
CC[C@H](C)[C@@H](C(=O)N[C@@H](CC(C)C)C(=O)N[C@@H](CO)C(=O)N[C@@H](CO)C(=O)N[C@H](C(=O)N[C@@H](CC(N)=O)C(=O)N[C@H](C(=O)NCC(=O)N[C@@H](CO)C(=O)N[C@@H](CC(N)=O)C(=O)N[C@H](C(=O)N(C)CC(N)=O)[C@@H](C)O)C(C)C)[C@@H](C)O)N(C)C(=O)[C@H](C)NC(=O)CN(C)C(=O)[C@H](Cc1ccccc1)NC(=O)[C@H](CC(N)=O)NC(=O)[C@H](CC(N)=O)NC(=O)[C@H](CO)NC(=O)[C@H](CO)NC(=O)[C@H](CCCNC(=N)N)NC(=O)[C@H](Cc1c[nH]cn1)NC(=O)[C@H](CC(C)C)NC(=O)[C@H](Cc1ccccc1)NC(=O)[C@H](CCC(=O)O)NC(=O)[C@H](C)NC(=O)[C@H](CC(C)C)NC(=O)[C@H](CCCNC(=N)N)NC(=O)[C@H](CCC(N)=O)NC(=O)[C@@H](NC(=O)[C@H](C)NC(=O)[C@@H]1CSSC[C@H](NC(=O)[C@H](CCCNC(=N)N)NC(=O)CC[C@H](NC(=O)CCCCCCCCCCCCCCCCCCC(=O)O)C(=O)O)C(=O)N[C@@H](CC(N)=O)C(=O)N[C@@H]([C@@H](C)O)C(=O)N[C@@H](C)C(=O)N[C@@H]([C@@H](C)O)C(=O)N1)[C@@H](C)O [Compound 101, [19CD]-isoGlu-RC()NTATC()ATQRLAEFLHRSSNNF-Gly(Me)-A-Ile(Me)-LSSTNVGSNT-Gly(Me)-NH2] ({C20 diacid-γGlu}-RCNTATCATQRLAEFLHRSSNNF[Sar]A[NMeI]LSSTNVGSNT[Sar]-NH2; disulfide 2-7)	–	SS (SS indicates solubility ≥ 1mg/ml)	SS (SS indicates solubility ≥ 1mg/ml)	SS (SS indicates solubility ≥ 1mg/ml)	SS (SS indicates solubility ≥ 1mg/ml)	II (II indicates solubility ≤ 1 mg/ml)	SS (SS indicates solubility ≥ 1mg/ml)	SS (SS indicates solubility ≥ 1mg/ml)	–	2.7	0.6
CC[C@H](C)[C@@H](C(=O)N[C@@H](CC(C)C)C(=O)N[C@@H](CO)C(=O)N[C@@H](CO)C(=O)N[C@H](C(=O)N[C@@H](CCC(=O)O)C(=O)N[C@H](C(=O)NCC(=O)N[C@@H](CO)C(=O)N[C@@H](CCC(=O)O)C(=O)N[C@H](C(=O)N1CCC[C@H]1C(N)=O)[C@@H](C)O)C(C)C)[C@@H](C)O)N(C)C(=O)[C@H](C)NC(=O)CN(C)C(=O)[C@H](Cc1ccccc1)NC(=O)[C@H](CO)NC(=O)[C@H](CO)NC(=O)[C@H](CO)NC(=O)[C@H](CO)NC(=O)[C@H](CCCNC(=N)N)NC(=O)[C@H](Cc1c[nH]cn1)NC(=O)[C@H](CC(C)C)NC(=O)[C@H](Cc1ccccc1)NC(=O)[C@H](CCC(=O)O)NC(=O)[C@H](C)NC(=O)[C@H](CC(C)C)NC(=O)[C@H](CCCNC(=N)N)NC(=O)[C@H](C)NC(=O)[C@@H](NC(=O)[C@H](C)NC(=O)[C@@H]1CSSC[C@H](NC(=O)[C@H](CCCNC(=N)N)NC(=O)CC[C@H](NC(=O)CCCCCCCCCCCCCCCCCCC(=O)O)C(=O)O)C(=O)N[C@@H](CCC(=O)O)C(=O)N[C@@H]([C@@H](C)O)C(=O)N[C@@H](C)C(=O)N[C@@H]([C@@H](C)O)C(=O)N1)[C@@H](C)O [Compound 146, [19CD]-isoGlu-RC()ETATC()ATARLAEFLHRSSSSF-Gly(Me)-A-Ile(Me)-LSSTEVGSETP-NH2] ({C20 diacid-γGlu}-RCETATCATARLAEFLHRSSSSF[Sar]A[NMeI]LSSTEVGSETP-NH2; disulfide 2-7)	–	SS (SS indicates solubility ≥ 1mg/ml)	SS (SS indicates solubility ≥ 1mg/ml)	SS (SS indicates solubility ≥ 1mg/ml)	SS (SS indicates solubility ≥ 1mg/ml)	SS (SS indicates solubility ≥ 1mg/ml)	SS (SS indicates solubility ≥ 1mg/ml)	SS (SS indicates solubility ≥ 1mg/ml)	0.092	0.15	–
